Reference: patent US7781591B2, “Substituted 3-cyanopyridines as protein kinase inhibitors” (Wyeth LLC, priority 2006, dated 2010)

Molecular target: T1, human PKCθ full length enzyme (Homo sapiens, UniProt Q04759)
T1 construct: human PKCθ full length enzyme (Panvera Cat# P2996); purchased Panvera P2996
Experiment: PKCθ IMAP assay (fluorescence polarization)
Format: biochemical
Settings: not given
Description: The reaction buffer was prepared by diluting the 5× stock reaction buffer and adding DTT to obtain a concentration of 3.0 mM. […] The final concentration of compound was 2× and 10% DMSO. DMSO was added to the rest of the master mix to increase the concentration to 10%. 10 μl of the master mix containing 10% DMSO was added to the rest of the wells on the plate except the 2nd column. 20 μl was transferred from the first column to the 2nd column. The compounds were serially diluted in 2:1 ratio starting from the 2nd column. A 2× ([…]) PKCθ solution was made in the reaction buffer. 10 μl of the PKCθ solution was added to every well to achieve these final concentrations: PKCθ—1 nM; ATP—6 μM; peptide—100 nM; DMSO—5%. Samples were incubated for 25 minutes at room temperature. The binding reagent was prepared by diluting the beads in 1× binding buffer to 800:1. 50 μl of the binding reagent was added to every well and incubated for 20 minutes. FP was measured using Envision2100 (PerkinElmer Life Sciences). Wells with no ATPs and wells with no enzymes were used as controls.

T1 sequence (Q04759 whole entry): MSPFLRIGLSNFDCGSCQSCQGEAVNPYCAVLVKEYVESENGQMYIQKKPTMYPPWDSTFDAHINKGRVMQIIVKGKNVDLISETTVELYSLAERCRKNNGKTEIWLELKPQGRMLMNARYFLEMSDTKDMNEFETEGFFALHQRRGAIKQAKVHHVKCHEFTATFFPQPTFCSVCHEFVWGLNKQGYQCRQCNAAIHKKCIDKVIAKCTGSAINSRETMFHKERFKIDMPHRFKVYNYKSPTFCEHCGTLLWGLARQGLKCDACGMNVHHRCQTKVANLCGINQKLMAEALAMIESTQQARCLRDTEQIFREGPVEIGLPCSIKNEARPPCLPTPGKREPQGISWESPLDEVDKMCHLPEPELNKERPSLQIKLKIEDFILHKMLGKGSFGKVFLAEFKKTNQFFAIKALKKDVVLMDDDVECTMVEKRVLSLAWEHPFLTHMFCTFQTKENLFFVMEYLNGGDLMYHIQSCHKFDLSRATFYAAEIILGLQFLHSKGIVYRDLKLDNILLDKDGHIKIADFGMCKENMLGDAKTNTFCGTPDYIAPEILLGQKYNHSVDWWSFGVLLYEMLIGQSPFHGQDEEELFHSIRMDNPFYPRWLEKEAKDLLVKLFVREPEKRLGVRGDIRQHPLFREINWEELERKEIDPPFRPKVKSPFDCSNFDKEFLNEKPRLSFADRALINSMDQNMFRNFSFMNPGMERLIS

Row | SMILES | IC50 [µM]
1 | COc1ccc(-c2cncc(C#N)c2-c2ccc3[nH]ccc3c2)cc1OC [Compound 221, 5-(3,4-dimethoxyphenyl)-4-(1H-indol-5-yl)nicotinonitrile] | 1.75

Same assay, conditions: human PKCθ full length enzyme, IMAP; average value; read-out: IC50 PKCθ IMAP

Row | IC50 [µM] | SMILES
2 | 0.05 | N#Cc1cncc(-c2cccc(-c3ccc(C(=O)NCCO)cc3)c2)c1Nc1cccc2[nH]ccc12 [Compound 216, 3′-[5-cyano-4-(1H-indol-4-ylamino)pyridin-3-yl]-N-(2-hydroxyethyl)biphenyl-4-carboxamide]
3 | 0.006 | COc1ccc(-c2cncc(C#N)c2Nc2ccc3[nH]ccc3c2C)cc1OC [Compound 218, 5-(3,4-dimethoxyphenyl)-4-[(4-methyl-1H-indol-5-yl)amino]nicotinonitrile]
4 | 0.27 | COc1ccc(-c2cncc(C#N)c2N(C)c2ccc3[nH]ccc3c2)cc1OC [Compound 219, 5-(3,4-dimethoxyphenyl)-4-[1H-indol-5-yl(methyl)amino]nicotinonitrile]
5 | 0.001 | Cc1c(Nc2c(C#N)cncc2-c2cc3ccccc3o2)ccc2[nH]ccc12 [Compound 222, 5-(1-benzofuran-2-yl)-4-[(4-methyl-1H-indol-5-yl)amino]nicotinonitrile]
6 | 0.006 | N#Cc1cncc(-c2cc3cc(C=O)ccc3s2)c1Nc1cccc2[nH]ccc12 [Compound 223, 5-(5-formyl-1-benzothien-2-yl)-4-(1H-indol-4-ylamino)nicotinonitrile]
7 | 0.004 | CN(C)Cc1ccc2sc(-c3cncc(C#N)c3Nc3cccc4[nH]ccc34)cc2c1 [Compound 224, 5-{5-[(dimethylamino)methyl]-1-benzothien-2-yl}-4-(1H-indol-4-ylamino)nicotinonitrile]
8 | 0.005 | N#Cc1cncc(-c2ccc(O)cc2)c1Nc1cccc2[nH]ccc12 [Compound 225, 5-(4-hydroxyphenyl)-4-(1H-indol-4-ylamino)nicotinonitrile]
9 | 0.003 | N#Cc1cncc(-c2ccc(OC[C@@H](N)Cc3ccccc3)cc2)c1Nc1cccc2[nH]ccc12 [Compound 226, 5-(4-{[(2S)-2-amino-3-phenylpropyl]oxy}phenyl)-4-(1H-indol-4-ylamino)nicotinonitrile]
10 | 0.001 | Cc1c(Nc2c(C#N)cncc2-c2cc3cc(C=O)ccc3s2)ccc2[nH]ccc12 [Compound 227, 5-(5-formyl-1-benzothien-2-yl)-4-[(4-methyl-1H-indol-5-yl)amino]nicotinonitrile]
11 | 0.002 | Cc1c(Nc2c(C#N)cncc2-c2cc3cc(CN4CCCCC4)ccc3s2)ccc2[nH]ccc12 [Compound 228, 4-[(4-methyl-1H-indol-5-yl)amino]-5-[5-(piperidin-1-ylmethyl)-1-benzothien-2-yl]nicotinonitrile]
12 | 0.008 | Cc1c(Nc2c(C#N)cncc2-c2cc3cc(CO)ccc3s2)ccc2[nH]ccc12 [Compound 229, 5-[5-(hydroxymethyl)-1-benzothien-2-yl]-4-[(4-methyl-1H-indol-5-yl)amino]nicotinonitrile]
13 | 0.33 | COc1ccc(-c2cncc(C#N)c2Nc2ccc3[nH]ccc3c2)cc1OCCN1CCOCC1 [Compound 230, 4-(1H-indol-5-ylamino)-5-[4-methoxy-3-(2-morpholin-4-ylethoxy)phenyl]nicotinonitrile]
14 | 0.25 | COc1ccc(-c2cncc(C#N)c2Nc2ccc3[nH]ccc3c2)cc1OCCN1CCN(C)CC1 [Compound 231, 4-(1H-indol-5-ylamino)-5-{4-methoxy-3-[2-(4-methylpiperazin-1-yl)ethoxy]phenyl}nicotinonitrile]
15 | 0.2 | COc1ccc(-c2cncc(C#N)c2Nc2ccc3[nH]ccc3c2)cc1OCCN1CCNCC1 [Compound 232, 4-(1H-indol-5-ylamino)-5-[4-methoxy-3-(2-piperazin-1-ylethoxy)phenyl]nicotinonitrile]
16 | 0.18 | COc1ccc(-c2cncc(C#N)c2Nc2ccc3[nH]ccc3c2)cc1OCCN1CCSCC1 [Compound 233, 4-(1H-indol-5-ylamino)-5-[4-methoxy-3-(2-thiomorpholin-4-ylethoxy)phenyl]nicotinonitrile]
17 | 0.19 | CCN1CCN(CCOc2cc(-c3cncc(C#N)c3Nc3ccc4[nH]ccc4c3)ccc2OC)CC1 [Compound 234, 5-{3-[2-(4-ethylpiperazin-1-yl)ethoxy]-4-methoxyphenyl}-4-(1H-indol-5-ylamino)nicotinonitrile]
18 | 0.24 | COc1ccc(-c2cncc(C#N)c2Nc2ccc3[nH]ccc3c2)cc1OCCN1CCCCC1 [Compound 235, 4-(1H-indol-5-ylamino)-5-[4-methoxy-3-(2-piperidin-1-ylethoxy)phenyl]nicotinonitrile]
19 | 0.2 | COc1ccc(-c2cncc(C#N)c2Nc2ccc3[nH]ccc3c2)cc1OCCN(C)C [Compound 236, 5-{3-[2-(dimethylamino)ethoxy]-4-methoxyphenyl}-4-(1H-indol-5-ylamino)nicotinonitrile]

Row | IC50 [µM] | SMILES
20 | 4.32 | COc1ccc(-c2cncc(C#N)c2Nc2ccc3[nH]ccc3c2)cc1OCCN(CCO)CCO [Compound 237, 5-(3-{2-[bis(2-hydroxyethyl)amino]ethoxy}-4-methoxyphenyl)-4-(1H-indol-5-ylamino)nicotinonitrile]
21 | 0.21 | COc1ccc(-c2cncc(C#N)c2Nc2ccc3[nH]ccc3c2)cc1OCCN1CCC(O)CC1 [Compound 238, 5-{3-[2-(4-hydroxypiperidin-1-yl)ethoxy]-4-methoxyphenyl}-4-(1H-indol-5-ylamino)nicotinonitrile]
22 | 0.08 | COc1ccc(-c2cncc(C#N)c2Nc2ccc3[nH]ccc3c2)cc1OCCNCc1cccnc1 [Compound 239, 4-(1H-indol-5-ylamino)-5-(4-methoxy-3-{2-[(pyridin-3-ylmethyl)amino]ethoxy}phenyl)nicotinonitrile]
23 | 0.08 | COc1ccc(-c2cncc(C#N)c2Nc2ccc3[nH]ccc3c2)cc1OCCNCc1ccncc1 [Compound 240, 4-(1H-indol-5-ylamino)-5-(4-methoxy-3-{2-[(pyridin-4-ylmethyl)amino]ethoxy}phenyl)nicotinonitrile]
24 | 0.08 | COc1ccc(-c2cncc(C#N)c2Nc2ccc3[nH]ccc3c2)cc1OCCNCc1ccccn1 [Compound 241, 4-(1H-indol-5-ylamino)-5-(4-methoxy-3-{2-[(pyridin-2-ylmethyl)amino]ethoxy}phenyl)nicotinonitrile]
25 | 0.02 | COc1ccc(-c2cncc(C#N)c2Nc2ccc3[nH]ccc3c2)cc1OCCNCCc1ccccc1 [Compound 242, 4-(1H-indol-5-ylamino)-5-(4-methoxy-3-{2-[(2-phenylethyl)amino]ethoxy}phenyl)nicotinonitrile]
26 | 0.23 | COc1ccc(-c2cncc(C#N)c2Nc2ccc3[nH]ccc3c2)cc1OCCNC1CCCC1 [Compound 243, 5-{3-[2-(cyclopentylamino)ethoxy]-4-methoxyphenyl}-4-(1H-indol-5-ylamino)nicotinonitrile]
27 | 0.17 | COc1ccc(-c2cncc(C#N)c2Nc2ccc3[nH]ccc3c2)cc1OCCNC1CCCCC1 [Compound 244, 5-{3-[2-(cyclohexylamino)ethoxy]-4-methoxyphenyl}-4-(1H-indol-5-ylamino)nicotinonitrile]
28 | 0.27 | COc1ccc(-c2cncc(C#N)c2Nc2ccc3[nH]ccc3c2)cc1OCCNCc1ccco1 [Compound 245, 5-(3-{2-[(2-furylmethyl)amino]ethoxy}-4-methoxyphenyl)-4-(1H-indol-5-ylamino)nicotinonitrile]
29 | 0.16 | COc1cc(Br)c(-c2cncc(C#N)c2Nc2ccc3[nH]ccc3c2)cc1OC [Compound 246, 5-(2-bromo-4,5-dimethoxyphenyl)-4-(1H-indol-5-ylamino)nicotinonitrile]
30 | 0.1 | COc1cc(Br)c(-c2cncc(C#N)c2Nc2ccc3[nH]ccc3c2C)cc1OC [Compound 247, 5-(2-bromo-4,5-dimethoxyphenyl)-4-[(4-methyl-1H-indol-5-yl)amino]nicotinonitrile]
31 | 0.05 | COc1ccc(-c2cncc(C#N)c2Nc2cccc3[nH]ccc23)cc1OCCN1CCCCC1 [Compound 248, 4-(1H-indol-4-ylamino)-5-[4-methoxy-3-(2-piperidin-1-ylethoxy)phenyl]nicotinonitrile]
32 | 0.03 | COc1ccc(-c2cncc(C#N)c2Nc2cccc3[nH]ccc23)cc1OCCNCCO [Compound 249, 5-(3-{2-[(2-hydroxyethyl)amino]ethoxy}-4-methoxyphenyl)-4-(1H-indol-4-ylamino)nicotinonitrile]
33 | 0.02 | COc1ccc(-c2cncc(C#N)c2Nc2ccc3[nH]ccc3c2)cc1OCCNCCCc1ccccc1 [Compound 250, 4-(1H-indol-5-ylamino)-5-(4-methoxy-3-{2-[(3-phenylpropyl)amino]ethoxy}phenyl)nicotinonitrile]
34 | 0.04 | COc1ccc(-c2cncc(C#N)c2Nc2ccc3[nH]ccc3c2)cc1OCCNCCc1ccccn1 [Compound 251, 4-(1H-indol-5-ylamino)-5-(4-methoxy-3-{2-[(2-pyridin-2-ylethyl)amino]ethoxy}phenyl)nicotinonitrile]
35 | 0.03 | COc1ccc(-c2cncc(C#N)c2Nc2ccc3[nH]ccc3c2)cc1OCCNCCc1cccnc1 [Compound 252, 4-(1H-indol-5-ylamino)-5-(4-methoxy-3-{2-[(2-pyridin-3-ylethyl)amino]ethoxy}phenyl)nicotinonitrile]
36 | 0.05 | COc1ccc(-c2cncc(C#N)c2Nc2ccc3[nH]ccc3c2)cc1OCCNCCc1ccncc1 [Compound 253, 4-(1H-indol-5-ylamino)-5-(4-methoxy-3-{2-[(2-pyridin-4-ylethyl)amino]ethoxy}phenyl)nicotinonitrile]
